This note sets out measurements from patent publication US9783551B2, “Pyranochromenyl phenol derivative, and pharmaceutical composition for treating metabolic syndrome or inflammatory disease” (GLACEUM, INC., priority 2013, dated 2017).

pIC50: −log10 of the molar value.

In general, pIC50 refers to the negative decadic logarithm of the IC50, by convention in mol/L. Low readings indicate a large IC50, high ones a small IC50. One may read the inhibition in vivo as the percentage by which the read-out fell short of the control.

Experiment [1] has as its system db/db mice. As to the kind of experiment: Liver histology (H&E, perilipin antibody) of db/db mice after 6 weeks. It is filed as in vivo, C57BLKS/J-db/db mice. Conditions: administered for 6 weeks, compared with control group. The protocol: (§1) 5-week-old male C57BLKS/J-db/db mice (Central Lab. Animal Inc.) were purchased and acclimatized for 2 weeks, and then used in this experiment. Samples were exactly taken from the compounds prepared in Examples 4 and 15 of the present invention (Compounds 5 and 16) according to the administration dose and put into Falcon tubes, a 0.5% methyl cellulose aqueous solution stored refrigerated was placed at room temperature to allow the excipients to be warmed at room temperature, 16 ml of each of the excipients was added to a 50 ml Falcon tube, and a vortex mixer was used to primarily mix the ingredients in a soft manner, and then a suspension was obtained and homogenized by treating the sample for 3 minutes using a homogenizer (30,000 rpm, CPT-1600E, Kinemtica, Switzerland), and then ultrasonically treated for 30 minutes. The sample thus prepared was administered through oral gavage using a disposable plastic syringe equipped with a sonde once daily for 42 days (6 weeks).
The mouse to which Compound 16 had been administered for 6 weeks in this experiment was finally sacrificed and autopsied to collect a liver, the liver was excised and each stained with hematoxylin and eosin (H&E) and perilipin antibody, the stained tissue was observed using a microscope, and the results are shown in FIGS. 2 to 5. […]

The next experiment relates to BV2 microglia cells. As to the kind of experiment: BV2 cell NO assay (LPS-induced NO production, Griess reagent). It is filed as cell-based. Conditions: Mus musculus, BV-2, LPS 1 μg/ml, 24 hours. How it is done:
(§2) After the pretreatment, 0.5 mg/ml of the MTT (Sigma, M2128) reagent was further added thereto. After the cells were cultured in a 5% CO2 incubator, the supernatant was discarded, 150 μl of DMSO was added and was shaken for 30 minutes, and an ELISA micro plate reader (Bio Rad Laboratories Inc., California, USA, Model 680) was used to measure the absorbance at a wavelength of 540 nm. All the experimental values were calculated as an average value of three repeated experimental values of the cell protection rate for the control group, and an experiment of suppressing the NO production for each compound was carried out at a concentration in which no cytotoxicity was shown.
After the reaction, an ELISA micro plate reader (Bio Rad Laboratories Inc., California, USA, Model 680) was used to measure the absorbance at a wavelength of 540 nm. The suppression rate was calculated as a difference in amount of NO produced between the control group and the experimental group, and as shown in the following Table 6 and FIG. 6, Compounds 4, 5, 15, 16, 18, and the like of the present invention were excellent in the effect of suppressing the production of NO, and the effect is also about 5 times to about 9 times better than that of glabridin.
A general note: The Griess reaction detects nitrite, a stable product of nitric oxide.

Another experiment relates to RAW264.7 macrophages. As to the kind of experiment: RAW264.7 macrophage NO assay (LPS-induced NO production, Griess reagent). It is filed as cell-based. How it is done: as §2, with “pretreatment,” for “pretreatment, 0.5 mg/ml of”, “reagent at a concentration of 0.5 mg/ml” for “reagent”, “incubator for 4 hours,” for “incubator,”
After the reaction, an ELISA micro plate reader (Bio Rad Laboratories Inc., California, USA, Model 680) was used to measure the absorbance at a wavelength of 540 nm. The suppression rate was calculated as a difference in amount of NO produced between the control group and the experimental group, and as shown in the following Table 7, Compounds 4, 5, 15, 16, 18, and the like of the present invention were excellent in the effect of suppressing the production of NO.

The next experiment deals with PTP1B (Homo sapiens (Human), UniProt P18031). Description: Experiment of PTP1B inhibition (p-NPP dephosphorylation). The format is biochemical. Conditions: 2 mM p-NPP substrate, 30° C., 30 minutes. From the text: With respect to PTP1B, the degrees of inhibition (IC50 The half maximal inhibitory concentration) of glabridin, and compounds of Preparation Example 2 (Compound 1), Example 2 (Compound 3), Example 3 (Compound 4), Example 4 (Compound 5), Example 13 (Compound 14), Example 14 (Compound 15), Example 15 (Compound 16), Example 17 (Compound 18), Example 18 (Compound 19) and Example 20 (Compound 21) were compared to each other. For this purpose, the degree of inhibition activity for PTP1B was investigated by using 2 mM p-nitrophenyl phosphate (p-NPP) as a substrate to measure the dephosphorylation degree. First, PTP1B diluted with distilled water was reacted with 2 mM p-nitrophenyl phosphate {p-NPP, 0.1 M NaCl, 1 mM EDTA, 50 mM citrate pH 6.0, and 1 mM dithiothreitol (DTT)} and Compound 1 at various concentrations at 30° C. for 30 minutes, and then the reaction was terminated with a 1 N-sodium hydroxide (NaOH) solution. The absorbance of the samples thus prepared was measured to confirm the inhibition degree (IC50: The half maximal inhibitory concentration) for PTP1B activity according to the concentration of Compound 1. Even for glabridin, Compound 3, Compound 4, Compound 5, Compound 14, Compound 15, Compound 16, Compound 18, Compound 19, and Compound 21, the same measurement was performed.
PTP1B, sequence (P18031 whole entry, species assumed): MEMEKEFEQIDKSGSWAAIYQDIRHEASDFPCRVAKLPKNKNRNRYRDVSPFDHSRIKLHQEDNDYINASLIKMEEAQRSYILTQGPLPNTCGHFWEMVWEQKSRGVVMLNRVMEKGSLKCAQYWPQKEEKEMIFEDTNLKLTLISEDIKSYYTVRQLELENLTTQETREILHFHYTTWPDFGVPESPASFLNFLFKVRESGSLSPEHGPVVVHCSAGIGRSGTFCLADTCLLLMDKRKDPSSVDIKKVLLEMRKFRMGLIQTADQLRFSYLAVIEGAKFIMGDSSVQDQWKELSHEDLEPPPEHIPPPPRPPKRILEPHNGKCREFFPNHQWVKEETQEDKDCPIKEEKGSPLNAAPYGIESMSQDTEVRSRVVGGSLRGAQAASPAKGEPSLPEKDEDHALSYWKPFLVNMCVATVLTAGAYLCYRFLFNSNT

For experiment [2], the system named is db/db mice. Description: Anti-diabetic effects for db/db mice (glycosylated hemoglobin). It is filed as in vivo, C57BLKS/J-db/db mice. How it is done:
as §1
The glycosylated hemoglobin (HbA1c) was measured while the db/db mice were bred. The gyclosylated hemoglobin was measured at 2 days prior to group separation, 4 weeks after administration, and 6 weeks after administration, and was measured by fasting the mice for 4 hours on the measurement date, collecting blood from the caudal vein before each material was administered, and using a device for measuring glycosylated hemoglobin (SD A1cCare, SD Biosensor, Inc., Korea).

Another experiment relates to DIO mice. As to the kind of experiment: Anti-obesity effect for DIO mice (body weight). Conditions: Mus musculus, 672 h; 4 weeks, 150 mg/kg, oral gavage once daily. It is filed as in vivo, C57BL/6 mice. The protocol: Five-week-old female C57BL/6 mice (Narabio Co., Ltd.) were purchased and fed with only high-fat diet for at least 10 weeks to produce diet induced obesity ([…]) mice. Samples were exactly taken from Preparation Example 1 (glabridin) and the compounds of Examples of the present invention (Compounds 1 to 5, 7, 9, 11, 14 to 16, 21, and 23) according to the administration dose and put into Falcon tubes, 3 ml of a 0.5% methyl cellulose aqueous solution was added thereto and a vortex mixer was used to primarily mix the ingredients in a soft manner, and then a homogenizer (30,000 rpm, Ultra-Turrax® T10 Basic, IKA) was used to treat the sample for 3 minutes while 1.5 ml of a 0.5% methyl cellulose aqueous solution was added thereto. The sample thus prepared was administered through oral gavage using a disposable plastic syringe once daily for 28 days (4 weeks). The body weight was measured twice a week while the DIO mice were bred in this manner. Based on the data thus calculated, the anti-obesity effect (%) was calculated according to the equation defined as follows. Anti-Obesity Effect={(Body weight of control group)−(Body weight of experimental group)}/(Body weight of control group)×100

As for `CCCOc1ccc(C2COc3c(ccc4c3CCC(C)(C)O4)C2)c(O)c1` (stereo not drawn) [Compound 16, 3-(2-hydroxy-4-propoxyphenyl)-8,8-dimethyl-2,3,4,8,9,10-hexahydropyrano [2,3-f] chromene], the “liver tissue observation by microscope” value in the experiment on db/db mice [1] is “small and compact adipocytes”. Moreover, the pIC50 with BV2 microglia cells is 5.64; with RAW264.7 macrophages (Mus musculus, RAW264.7, NO production, LPS 1 μg/ml, 24 hours) it was 5.36; on PTP1B it was 5.72. Further, the “effect of suppressing the production of NO” value in the experiment with RAW264.7 macrophages (RAW264.7 macrophages, in words) is “excellent”. Moreover, the “HbA1c (%) 4 weeks” value with db/db mice [2] (4 weeks after administration, 300 mg/kg oral once daily) is 6.7%. In addition, in the experiment with db/db mice [2] (6 weeks after administration, 300 mg/kg oral once daily), the “HbA1c (%) 6 weeks” value is on record as 6.2%. The “HbA1c (%) Before administration” value in the experiment on db/db mice [2] (before administration, 300 mg/kg group) was found to be 4.7%. Further, in the experiment with DIO mice, the inhibition in vivo at 150 mg/kg came out at 7%.
